PubChem BioAssay (NCI)
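Step 1: Grow cells in 96-well plates. Step 2: Expose to compound for 48 hours at 5 concentrations. Step 3: Interpolate endpoints linearly; if unreached, use highest concentration. GI50: concentration for 50% inhibition of growth. TGI denotes the concentration required for complete inhibition of growth.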

Key:
Assay in all cases: NCI-60 cell line screen, 48 h
[1] = tested on: OVCAR-3 ovarian
[2] = tested on: A549 NSCLC
[3] = tested on: UACC-62 melanoma
[4] = tested on: BT-549 breast
[5] = tested on: NCI-H23 lung
[6] = tested on: HOP-62 NSCLC
[7] = tested on: NCI-H460 lung
[8] = tested on: HT29 colon
[9] = tested on: LOX IMVI melanoma
[10] = tested on: DU-145 prostate
[11] = tested on: IGROV1 ovarian
[12] = tested on: MALME-3M melanoma
[13] = tested on: SK-MEL-5 melanoma
[14] = tested on: SNB-75 CNS
[15] = tested on: SK-MEL-2 melanoma
[16] = tested on: SF-268 CNS
[17] = tested on: SN12C renal
[18] = tested on: T-47D breast
[19] = tested on: UO-31 renal
[20] = tested on: SK-MEL-28 melanoma
[21] = tested on: SF-539 CNS
[22] = tested on: KM12 colon
[23] = tested on: PC-3 prostate
[24] = tested on: SW-620 colon
[25] = tested on: A498 renal
[26] = tested on: RPMI-8226 leukemia
[27] = tested on: EKVX NSCLC
[28] = tested on: SF-295 CNS
[29] = tested on: SK-OV-3 ovarian
[30] = tested on: UACC-257 melanoma
[31] = tested on: NCI-H522 lung
[32] = tested on: MDA-MB-468 breast
[33] = tested on: TK-10 renal
[34] = tested on: NCI/ADR-RES ovarian
[35] = tested on: MCF7 breast
[36] = tested on: K-562 leukemia
[37] = tested on: HCT-15 colon
[38] = tested on: HOP-92 NSCLC
[39] = tested on: SNB-19 CNS
[40] = tested on: HCT-116 colon
[41] = tested on: MDA-MB-435
[42] = tested on: CAKI-1 renal
[43] = tested on: U251 CNS
[44] = tested on: HCC-2998 colon
[45] = tested on: HS 578T breast
[46] = tested on: ACHN renal
[47] = tested on: 786-0 renal
[48] = tested on: CCRF-CEM leukemia
[49] = tested on: NCI-H226 lung
[50] = tested on: SR leukemia
[51] = tested on: OVCAR-5 ovarian
[52] = tested on: RXF 393 renal
[53] = tested on: M14 melanoma
[54] = tested on: COLO 205 colon
[55] = tested on: HL-60(TB) leukemia
[56] = tested on: OVCAR-4 ovarian
[57] = tested on: MDA-MB-231 breast
[58] = tested on: OVCAR-8 ovarian
[59] = tested on: MOLT-4 leukemia

Structure (SMILES): CCOC(=O)c1sc(N/N=C(\C)c2ccc3c(c2)Nc2ccccc2S3)nc1C
- GI50 [1]: 12.8 µM
- TGI [1]: 27.3 µM
- GI50 [2]: 6.4 µM
- TGI [2]: 38.8 µM
- GI50 [3]: 6.06 µM
- TGI [3]: 20.6 µM
- GI50 [4]: 18.4 µM
- TGI [4]: 49.3 µM
- GI50 [5]: 8.65 µM
- TGI [5]: 21.3 µM
- GI50 [6]: 13.3 µM
- TGI [6]: 29.6 µM
- GI50 [7]: 5 µM
- TGI [7]: 24.2 µM
- GI50 [8]: 11.7 µM
- TGI [8]: > 100 µM
- GI50 [9]: 3.14 µM
- TGI [9]: 12.4 µM
- GI50 [10]: 8.82 µM
- TGI [10]: 29.1 µM
- GI50 [11]: 11.3 µM
- TGI [11]: 26 µM
- GI50 [12]: 13.7 µM
- TGI [12]: 33.6 µM
- GI50 [13]: 7.62 µM
- TGI [13]: 27.2 µM
- GI50 [14]: 8.97 µM
- TGI [14]: 31.2 µM
- GI50 [15]: 15.4 µM
- TGI [15]: 44.8 µM
- GI50 [16]: 13.1 µM
- TGI [16]: 40.4 µM
- GI50 [17]: 11.5 µM
- TGI [17]: 28.3 µM
- GI50 [18]: 3.94 µM
- TGI [18]: 49.2 µM
- GI50 [19]: 6.67 µM
- TGI [19]: 20.7 µM
- GI50 [20]: 11.1 µM
- TGI [20]: 26.1 µM
- GI50 [21]: 10.1 µM
- TGI [21]: 21.7 µM
- GI50 [22]: 3.45 µM
- TGI [22]: 19.4 µM
- GI50 [23]: 6.04 µM
- TGI [23]: 24 µM
- GI50 [24]: 11.9 µM
- TGI [24]: 45.2 µM
- GI50 [25]: 16.1 µM
- TGI [25]: 45.5 µM
- GI50 [26]: 3.96 µM
- TGI [26]: > 100 µM
- GI50 [27]: 5.82 µM
- TGI [27]: 22.8 µM
- GI50 [28]: 3.38 µM
- TGI [28]: 14.1 µM
- GI50 [29]: 16.9 µM
- TGI [29]: 39.7 µM
- GI50 [30]: 12.4 µM
- TGI [30]: 40.4 µM
- GI50 [31]: 10.7 µM
- TGI [31]: 34.8 µM
- GI50 [32]: 3.45 µM
- TGI [32]: 15.1 µM
- GI50 [33]: 16.6 µM
- TGI [33]: 33.5 µM
- GI50 [34]: 8.87 µM
- TGI [34]: 22.2 µM
- GI50 [35]: 3.36 µM
- TGI [35]: 17.5 µM
- GI50 [36]: 4.03 µM
- TGI [36]: > 100 µM
- GI50 [37]: 3.4 µM
- TGI [37]: 14.8 µM
- GI50 [38]: 4.9 µM
- TGI [38]: 19.9 µM
- GI50 [39]: 12.8 µM
- TGI [39]: 25.6 µM
- GI50 [40]: 6.64 µM
- TGI [40]: > 100 µM
- GI50 [41]: 10.7 µM
- TGI [41]: 33.6 µM
- GI50 [42]: 9.09 µM
- TGI [42]: 22.8 µM
- GI50 [43]: 14.1 µM
- TGI [43]: 54 µM
- GI50 [44]: 3.71 µM
- TGI [44]: 12.8 µM
- GI50 [45]: 10.5 µM
- TGI [45]: 50.6 µM
- GI50 [46]: 6.1 µM
- TGI [46]: 19.1 µM
- GI50 [47]: 7.21 µM
- TGI [47]: 23.1 µM
- GI50 [48]: 6.52 µM
- TGI [48]: 94.4 µM
- GI50 [49]: 10.9 µM
- TGI [49]: 29.3 µM
- GI50 [50]: > 100 µM
- TGI [50]: > 100 µM
- GI50 [51]: 11.6 µM
- TGI [51]: 67.6 µM
- GI50 [52]: 3.2 µM
- TGI [52]: 13.3 µM
- GI50 [53]: 8.42 µM
- TGI [53]: 61.8 µM
- GI50 [54]: 9.42 µM
- TGI [54]: 32.2 µM
- GI50 [55]: 4.89 µM
- TGI [55]: > 100 µM
- GI50 [56]: 10.7 µM
- TGI [56]: 53.7 µM
- GI50 [57]: 5.73 µM
- TGI [57]: 19.1 µM
- GI50 [58]: 12 µM
- TGI [58]: 39.6 µM
- GI50 [59]: 6.33 µM
- TGI [59]: > 100 µM
